Experimental data reported in patent EP2185126B1, “USE OF TROXERUTIN TO QUENCH THE FLUORESCENCE OF DISODIUM PHENYL DIBENZIMIDAZOLE TETRASULFONATE” (Symrise AG, priority 2007, dated 2007).

Key:
[1] = Colour and colour stability of emulsion on storage; format: physicochemical; settings: emulsion prepared with the substance
Solubility in water = format: physicochemical

solubility in water (Solubility in water) | Structure (SMILES) | colour / colour stability of emulsion [1]
poorly soluble in water | C[C@@H]1O[C@@H](O[C@H]2[C@H](Oc3cc(O)c4c(c3)O[C@H](c3ccc(O)cc3)CC4=O)O[C@H](CO)[C@@H](O)[C@@H]2O)[C@H](O)[C@H](O)[C@H]1O [naringin] | less susceptible to colouration problems than other flavone derivatives
ease of solubility in water | C[C@@H]1O[C@@H](OC[C@H]2O[C@@H](Oc3c(-c4ccc(OCCO)c(OCCO)c4)oc4cc(OCCO)cc(O)c4c3=O)[C@H](O)[C@@H](O)[C@@H]2O)[C@H](O)[C@H](O)[C@H]1O [troxerutin, 7,3',4'-tris[O-(2-hydroxyethyl)]rutin] | long term colour stability

Continued, compound first:

Structure (SMILES) | solubility in water (Solubility in water) | colour / colour stability of emulsion [1]
COc1ccc([C@@H]2CC(=O)c3c(O)cc(O[C@@H]4O[C@H](CO[C@@H]5O[C@@H](C)[C@H](O)[C@@H](O)[C@H]5O)[C@@H](O)[C@H](O)[C@H]4O)cc3O2)cc1O [hesperidin] | poorly soluble in water | less susceptible to colouration problems than other flavone derivatives
O=c1c(O)c(-c2ccc(O)c(O)c2)oc2cc(O)cc(O)c12 [quercetin] | – | deeply yellow in colour
C[C@@H]1O[C@@H](OC[C@H]2O[C@@H](Oc3c(-c4ccc(O)c(O)c4)oc4cc(O)cc(O)c4c3=O)[C@H](O)[C@@H](O)[C@@H]2O)[C@H](O)[C@H](O)[C@H]1O [rutin] | – | beige in colour and on storage turns dark brown
